These are literature values, as cited in PubChem BioAssay AID1259409 (Chemical Carcinogenesis Research Information System (CCRIS), 2018).

The series has as its system rodent chemically induced tumor inhibition, incidence and multiplicity. The series can be described thus: CCRIS tumor inhibitor studies. Conditions: Dose [Inhibitor]: 0, Route [Inhibitor]: ORAL.

The structures appear in SMILES notation.

As for `COc1ccc2cc3[n+](cc2c1OC)CCc1cc2c(cc1-3)OCO2`, the “tumour outcome (control, treated, inhibition, significance)” value is, setting by setting: (Carcinogen: METHYLCHOLANTHRENE, 56-49-5, 0.5 MG/KG BW BY GAVAGE 3/WK FOR 8 WK (STUDY DURATION: 180 D), Species: MOUSE, Strain/Sex: SWISS/MALE, Target Tissue: Type of Lesion: SKIN: SARCOMA, Dose [Carcinogen]: 200 UG/ANIMAL ONCE 5 D POST INHIBITOR TREATMENT) 100%, 40%, 60%, not calculated; (Carcinogen: METHYLCHOLANTHRENE, 56-49-5, 2.5 MG/KG BW BY GAVAGE 3/WK FOR 8 WK (STUDY DURATION: 180 D), Species: MOUSE, Strain/Sex: SWISS/MALE, Target Tissue: Type of Lesion: SKIN: SARCOMA, Dose [Carcinogen]: 200 UG/ANIMAL ONCE 5 D POST INHIBITOR TREATMENT) 100%, 47%, 53%, not calculated; (Carcinogen: METHYLCHOLANTHRENE, 56-49-5, 5 MG/KG BW BY GAVAGE 3/WK FOR 8 WK (STUDY DURATION: 180 D), Species: MOUSE, Strain/Sex: SWISS/MALE, Target Tissue: Type of Lesion: SKIN: SARCOMA, Dose [Carcinogen]: 200 UG/ANIMAL ONCE 5 D POST INHIBITOR TREATMENT) 100%, 67%, 33%, not calculated; (Carcinogen: N,N-DIETHYLNITROSAMINE, 55-18-5, 10 MG/KG BW BY GAVAGE 5 D/WK FOR 141 D (STUDY DURATION: 30 WK), Species: RAT, Strain/Sex: WISTAR/FEMALE, Target Tissue: Type of Lesion: LIVER: TUMOR, Dose [Carcinogen]: 0.02% IN DISTILLED WATER BY GAVAGE 5 D/WK FOR 20 WK BEGINNING 1 D POST INHIBITOR FIRST DOSE) 100%, 100%, 0%, not significant; (Carcinogen: N,N-DIETHYLNITROSAMINE, 55-18-5, 25 MG/KG BW BY GAVAGE 5 D/WK FOR 141 D (STUDY DURATION: 30 WK), Species: RAT, Strain/Sex: WISTAR/FEMALE, Target Tissue: Type of Lesion: LIVER: TUMOR, Dose [Carcinogen]: 0.02% IN DISTILLED WATER BY GAVAGE 5 D/WK FOR 20 WK BEGINNING 1 D POST INHIBITOR FIRST DOSE) 100%, 50%, 50%, not significant; (Carcinogen: N,N-DIETHYLNITROSAMINE, 55-18-5, 50 MG/KG BW BY GAVAGE 5 D/WK FOR 141 D (STUDY DURATION: 30 WK), Species: RAT, Strain/Sex: WISTAR/FEMALE, Target Tissue: Type of Lesion: LIVER: TUMOR, Dose [Carcinogen]: 0.02% IN DISTILLED WATER BY GAVAGE 5 D/WK FOR 20 WK BEGINNING 1 D POST INHIBITOR FIRST DOSE) 100%, 50%, 50%, not significant.
